Experimental findings from US10519152B2, “Compounds and their use in treating cancer” (AstraZeneca AB, priority 2017, dated 2019) are described below.

Structures are written as SMILES. Structures can show the parent of a compound that is named as a salt.

In this assay the target is T1, recombinant human Estrogen Receptor alpha ligand binding domain, residues 307-554 (ER alpha-LBD (GST)) (Homo sapiens, UniProt P03372).
T1 construct: made in house
T1 sequence (P03372 307-554): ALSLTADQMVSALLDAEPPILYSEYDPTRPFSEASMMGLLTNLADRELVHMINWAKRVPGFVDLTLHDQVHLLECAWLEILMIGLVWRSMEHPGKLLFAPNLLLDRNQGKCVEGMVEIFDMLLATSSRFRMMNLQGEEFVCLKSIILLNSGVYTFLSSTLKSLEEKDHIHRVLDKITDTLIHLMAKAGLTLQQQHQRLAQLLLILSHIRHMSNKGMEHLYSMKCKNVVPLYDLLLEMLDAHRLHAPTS
Kind of assay: ERα binding assay (LanthaScreen TR-FRET competition). The following applies: TR-FRET competition with Fluormone ES2 tracer, 4 hours at room temperature; single experiment or average of two or more.
For `Cc1ncsc1-c1ccc(CNC(=O)[C@@H]2C[C@@H](O)CN2C(=O)[C@@H](NC(=O)COCCO[C@H](C)[C@@H](C)OCCOc2cc(F)c([C@@H]3c4[nH]c5ccccc5c4C[C@@H](C)N3CC(C)(C)F)c(F)c2)C(C)(C)C)cc1` [Example 80, (2S,4R)-1-((2S,10R,11R)-2-(tert-butyl)-14-(3,5-difluoro-4-((1R,3R)-2-(2-fluoro-2-methylpropyl)-3-methyl-2,3,4,9-tetrahydro-1H-pyrido[3,4-b]indol-1-yl)phenoxy)-10,11-dimethyl-4-oxo-6,9,12-trioxa-3-azatetradecanoyl)-4-hydroxy-N-(4-(4-methylthiazol-5-yl)benzyl)pyrrolidine-2-carboxamide], the IC50 amounted to 0.7 nM. Regarding `Cc1ncsc1-c1ccc(CNC(=O)[C@@H]2C[C@@H](OC(=O)[C@H](C)NC(=O)[C@@H](N)C(C)C)CN2C(=O)[C@@H](NC(=O)COCCOCCOCCOc2cc(F)c([C@@H]3c4[nH]c5ccccc5c4C[C@@H](C)N3CC(C)(C)F)c(F)c2)C(C)(C)C)cc1` [Example 100, (3R,5S)-1-((S)-2-(2-(2-(2-(2-(3,5-Difluoro-4-((1R,3R)-2-(2-fluoro-2-methylpropyl)-3-methyl-2,3,4,9-tetrahydro-1H-pyrido[3,4-b]indol-1-yl)phenoxy)ethoxy)ethoxy)ethoxy)acetamido)-3,3-dimethylbutanoyl)-5-((4-(4-methylthiazol-5-yl)benzyl)carbamoyl)pyrrolidin-3-yl L-valyl-L-alaninate Formate], the IC50 was found to be 0.8 nM. The figure for `Cc1ncsc1-c1ccc(CNC(=O)[C@@H]2C[C@@H](O)CN2C(=O)[C@@H](NC(=O)COCc2ccc(COc3cc(F)c([C@@H]4c5[nH]c6ccccc6c5C[C@@H](C)N4CC(C)(C)F)c(F)c3)cn2)C(C)(C)C)cc1` [Example 86, (2S,4R)-1-((S)-2-(2-((5-((3,5-Difluoro-4-((1R,3R)-2-(2-fluoro-2-methylpropyl)-3-methyl-2,3,4,9-tetrahydro-1H-pyrido[3,4-b]indol-1-yl)phenoxy)methyl)pyridin-2-yl)methoxy)acetamido)-3,3-dimethylbutanoyl)-4-hydroxy-N-(4-(4-methylthiazol-5-yl)benzyl)pyrrolidine-2-carboxamide] is 0.7 nM. The figure for `Cc1ncsc1-c1ccc(CNC(=O)[C@@H]2C[C@@H](O)CN2C(=O)[C@@H](NC(=O)COCCOCCOCCOc2cc(F)c([C@@H]3c4[nH]c5ccccc5c4C[C@@H](C)N3CC(F)(F)F)c(F)c2)C(C)(C)C)cc1` [Example 95, (2S,4R)-1-((S)-2-(tert-Butyl)-14-(3,5-difluoro-4-((1R,3R)-3-methyl-2-(2,2,2-trifluoroethyl)-2,3,4,9-tetrahydro-1H-pyrido[3,4-b]indol-1-yl)phenoxy)-4-oxo-6,9,12-trioxa-3-azatetradecanoyl)-4-hydroxy-N-(4-(4-methylthiazol-5-yl)benzyl)pyrrolidine-2-carboxamide] is 1.2 nM. With `Cc1ncsc1-c1ccc(CNC(=O)[C@@H]2C[C@@H](O)CN2C(=O)[C@@H](NC(=O)COCCOCCCCCOc2cc(F)c([C@@H]3c4[nH]c5ccccc5c4C[C@@H](C)N3CC(C)(C)F)c(F)c2)C(C)(C)C)cc1` [Example 97, (2S,4R)-1-((S)-2-(2-(2-((5-(3,5-Difluoro-4-((1R,3R)-2-(2-fluoro-2-methylpropyl)-3-methyl-2,3,4,9-tetrahydro-1H-pyrido[3,4-b]indol-1-yl)phenoxy)pentyl)oxy)ethoxy)acetamido)-3,3-dimethylbutanoyl)-4-hydroxy-N-(4-(4-methylthiazol-5-yl)benzyl)pyrrolidine-2-carboxamide] the figure was 0.5 nM.
